Patent US20180214395A1 (priority 2017, published 2018)
Values joined by “and” are separate entries in the source; they are usually repeats but may differ in a detail not shown here. Equal values may be shown once. “Also recorded” adds a separate entry of the source. Read-outs that look alike come from different tables or passages of the source.

What was measured:
[1] = both, human, in vivo
[2] = biological target: T1, norepinephrine transporter (NET) (Rattus norvegicus, UniProt Q63380); assay: Norepinephrine uptake assay; type: biochemical
T1 construct: tissue Eurofins Cerep; host or cells: rat hypothalamus synaptosomes (own knowledge of the vendor's assay)
T1 sequence (Q63380 1-617): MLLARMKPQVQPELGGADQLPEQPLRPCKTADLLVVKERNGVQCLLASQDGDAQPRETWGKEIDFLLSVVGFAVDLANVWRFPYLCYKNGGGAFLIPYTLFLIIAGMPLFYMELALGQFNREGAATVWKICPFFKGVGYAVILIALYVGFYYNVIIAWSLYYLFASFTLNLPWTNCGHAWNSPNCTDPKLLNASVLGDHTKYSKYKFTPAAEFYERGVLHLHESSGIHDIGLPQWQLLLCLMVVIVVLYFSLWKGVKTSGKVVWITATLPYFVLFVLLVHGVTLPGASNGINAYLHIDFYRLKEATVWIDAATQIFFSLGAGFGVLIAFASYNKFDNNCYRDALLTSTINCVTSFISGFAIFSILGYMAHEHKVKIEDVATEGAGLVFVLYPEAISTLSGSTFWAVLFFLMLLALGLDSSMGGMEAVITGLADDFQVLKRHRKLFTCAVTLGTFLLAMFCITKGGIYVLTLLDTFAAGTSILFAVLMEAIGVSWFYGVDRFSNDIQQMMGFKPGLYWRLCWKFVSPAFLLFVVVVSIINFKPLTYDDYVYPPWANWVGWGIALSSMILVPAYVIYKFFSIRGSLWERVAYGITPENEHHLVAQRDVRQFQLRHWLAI

[3] = biological target: T2, serotonin transporter (SERT or 5-HT) (Rattus norvegicus, UniProt P31652); assay: biochemical
T2 sequence (P31652 whole entry): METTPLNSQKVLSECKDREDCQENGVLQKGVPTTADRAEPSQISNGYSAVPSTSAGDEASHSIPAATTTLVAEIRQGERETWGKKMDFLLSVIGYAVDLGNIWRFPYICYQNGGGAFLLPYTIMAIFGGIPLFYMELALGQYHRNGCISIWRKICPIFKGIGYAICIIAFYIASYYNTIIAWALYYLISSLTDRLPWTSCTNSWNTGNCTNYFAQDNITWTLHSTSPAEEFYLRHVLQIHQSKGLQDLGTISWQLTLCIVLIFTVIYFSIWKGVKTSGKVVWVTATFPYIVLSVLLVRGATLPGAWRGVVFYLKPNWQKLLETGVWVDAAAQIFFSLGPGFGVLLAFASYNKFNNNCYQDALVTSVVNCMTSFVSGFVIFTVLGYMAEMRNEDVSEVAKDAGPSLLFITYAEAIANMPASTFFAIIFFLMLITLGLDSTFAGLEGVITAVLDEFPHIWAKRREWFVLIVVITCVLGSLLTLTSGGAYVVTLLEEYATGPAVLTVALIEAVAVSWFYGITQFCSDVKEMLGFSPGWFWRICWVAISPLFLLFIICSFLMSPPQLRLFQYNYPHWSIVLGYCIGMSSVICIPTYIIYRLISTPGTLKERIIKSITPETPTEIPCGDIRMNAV

[4] = Serum glucose (colorimetric kit) in MAD 25 mg subjects; type: in vivo, human; settings: 25 mg per day for 10 days; for Mean serum glucose change vs baseline: six treated subjects; for serum glucose, individual subjects: hydrochloride
Forced swim test = type: in vivo, rat; settings: for Immobility, Mean frequency / Swimming, Mean frequency: single administration 24 hours prior, 60 counts per subject; for Immobility, Mean Diff. (Fisher's PLSD) / Swimming, Mean Diff. (Fisher's PLSD): Vehicle minus treatment
[5] = biological target: T2, serotonin transporter (SERT or 5-HT)
[6] = Female urine sniffing test (FUST); type: in vivo; settings: rat; 24 hr after single dose; ketamine 10 mg/kg ip, d-methadone 20 mg/kg sc
[7] = Body weight gain in rats (chronic constrictive nerve injury model experiment); type: in vivo; settings: rat
BDNF = BDNF levels (ELISA) in MAD study subjects; type: in vivo, human; settings: for BDNF, individual subjects: hydrochloride

For `CCC(=O)C(C[C@H](C)N(C)C)(c1ccccc1)c1ccccc1` [d-methadone], the “Number of doses to steady state” value [1] was 6-7 doses, the AUCtau ([1]; 25 mg) was 4392 ng·h/mL and the AUCtau ([1]; 50 mg) was 10,147 h*ng/mL. The AUCtau ([1]; 75 mg) was 10,537 h*ng/mL, the IC50 [2] was 8.2 µM and the “norepinephrine uptake, % inhibition” value ([2]; 1.0E−05 M) was 61.6%. For the same compound, the “Inhibition of norepinephrine uptake by NET” value ([2]; […]) was “significant inhibition”, the IC50 [3] was 0.12 µM and the “Mean serum glucose change vs baseline” value ([4]; day 10) was −0.08 mmol/I. For the same compound, the “Mean serum glucose change vs baseline” value ([4]; day 12) was −0.43 mmol/I, the “serum glucose, individual subjects” value ([4]; Day-10) was 3.2 mmol/I and 4.9 mmol/I and the “serum glucose, individual subjects” value ([4]; Day-12) was 4.9 mmol/I (3×) and 4.1 mmol/I. For the same compound, the “Immobility, Mean frequency” value (Forced swim test; 10 mg/kg) was 31.400, the “Swimming, Mean frequency” value (Forced swim test; 10 mg/kg) was 20.200 and the “Immobility, Mean frequency” value (Forced swim test; 20 mg/kg) was 23.556. The “Swimming, Mean frequency” value (Forced swim test; 20 mg/kg) was 32.667, the “Immobility, Mean frequency” value (Forced swim test; 40 mg/kg) was 23.200 and the “Swimming, Mean frequency” value (Forced swim test; 40 mg/kg) was 26.200. The “Immobility, Mean Diff. (Fisher's PLSD)” value (Forced swim test; 10 mg/kg) was 17.600, the “Swimming, Mean Diff. (Fisher's PLSD)” value (Forced swim test; 10 mg/kg) was −12.978 and the “Immobility, Mean Diff. (Fisher's PLSD)” value (Forced swim test; 20 mg/kg) was 25.444. For the same compound, the “Swimming, Mean Diff. (Fisher's PLSD)” value (Forced swim test; 20 mg/kg) was −25.444, the “Immobility, Mean Diff. (Fisher's PLSD)” value (Forced swim test; 40 mg/kg) was 25.800 and the “Swimming, Mean Diff. (Fisher's PLSD)” value (Forced swim test; 40 mg/kg) was −18.978. The inhibition [5] was 91% and 92.7% and 89.3%, the “FUST: time sniffing water” value [6] was “no effect” and the “FUST: time spent sniffing female urine vs vehicle” value [6] was “increased”. For the same compound, the “mean weight gain baseline to day 15” value ([7]; 10 mg/kg s.c. once daily 15 days) was 41 grams, the “mean weight gain baseline to day 15” value ([7]; 20 mg/kg s.c. once daily 15 days) was 36 grams and the “Body weight gain vs vehicle-treated animals” value ([7]; 40 mg/kg S.C. once daily for 15 days) was “lower weight gain”. For the same compound, the “mean weight gain baseline to day 15” value ([7]; 40 mg/kg s.c. once daily 15 days) was 22 grams, the “Subjects with increase in BDNF levels post treatment vs pre-treatment” value (BDNF; 25 mg a day for ten days) was 6 of 6 and the BDNF serum levels (BDNF; 25 mg, healthy volunteers) was “significantly increases”. For the same compound, the “BDNF levels after treatment vs pre-treatment” value (BDNF; 50 mg and 75 mg doses, not statistically significant against placebo) was “consistently showed an increase”, the “BDNF, individual subjects” value (BDNF; Day 2 hr 4, 25 mg a day oral) was “BDNF 3.603 ng/L; also recorded: BDNF 2.529 ng/L; also recorded: BDNF 2.038 ng/L; also recorded: BDNF 1.862 ng/L; also recorded: BDNF 8.995 ng/L; also recorded: BDNF 2.750 ng/L” and the “BDNF, individual subjects” value (BDNF; Day 6 hr 4, 25 mg a day oral) was 4.820 ng/mL and 2.920 ng/mL and 2.348 ng/mL and 2.458 ng/mL and 3.790 ng/mL. The “BDNF, individual subjects” value (BDNF; Day 10 hr 4, 25 mg a day oral) was 4.004 ng/mL and 10.697 ng/mL and 2.853 ng/mL and 4.347 ng/mL and 5.459 ng/mL and 3.733 ng/mL, the “BDNF, individual subjects” value (BDNF; Pre-Treatment (baseline), MAD 25 mg subjects) was 1.143 ng/mL and BDNF 0.612 ng/mL and 0.376 ng/mL and 0.460 ng/mL and 0.497 ng/mL and 1.922 ng/mL and the “BDNF_T0 Mean” value (BDNF; baseline, w/o placebo, N 6) was “.83100 ng/mL”. The “BDNF_D2 Mean” value (BDNF; day 2, 25 mg a day, w/o placebo, N 6) was 3.63 ng/mL, the “BDNF_D6 Mean” value (BDNF; day 6, 25 mg a day, w/o placebo, N 5) was 3.267 ng/mL and the “BDNF_D10 Mean” value (BDNF; day 10, 25 mg a day, w/o placebo, N 6) was 5.182 ng/mL.
